Activity calls are given as the source filed them. The rule behind the calls is not given here.
Legend:
[1] = molecular target: T1, Cytohesin-2 (Homo sapiens) (UniProt Q99418); experiment: Inhibition of human Alexa 488 labeled Arno Sec7 domain-mediated promiscuous aggregator activity in delta17 Arf1 (17 to 181) at 1 to 100 uM by fluorescence anisotropy assay
T1 sequence (whole entry): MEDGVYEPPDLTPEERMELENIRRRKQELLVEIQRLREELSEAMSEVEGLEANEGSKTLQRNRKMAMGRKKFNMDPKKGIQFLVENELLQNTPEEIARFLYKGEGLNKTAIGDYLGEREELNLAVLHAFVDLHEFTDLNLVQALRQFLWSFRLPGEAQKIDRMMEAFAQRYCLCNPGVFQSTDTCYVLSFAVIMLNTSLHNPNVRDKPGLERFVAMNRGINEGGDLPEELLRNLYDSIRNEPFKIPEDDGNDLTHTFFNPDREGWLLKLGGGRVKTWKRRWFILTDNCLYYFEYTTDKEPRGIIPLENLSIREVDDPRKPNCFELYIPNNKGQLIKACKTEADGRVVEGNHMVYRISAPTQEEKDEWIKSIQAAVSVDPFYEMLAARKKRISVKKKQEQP

[2] = molecular target: T1, Cytohesin-2 (Homo sapiens); experiment: Binding affinity to human Arno Sec7 domain immobilized on CAP sensor chip at 1 mM after 15 mins by […]
[3] = molecular target: T1, Cytohesin-2 (Homo sapiens); experiment: Inhibition of human Arno Sec7 domain-mediated nucleotide exchange in delta17 Arf1 (17 to 181) at 2 mM by BODIPY-GTP based time resolved fluorescence assay relative to control
[4] = molecular target: T1, Cytohesin-2 (Homo sapiens); experiment: Binding affinity to human Arno Sec7 domain immobilized on CAP sensor chip at 250 uM by surface plasmon resonance analysis
[5] = molecular target: T1, Cytohesin-2 (Homo sapiens); experiment: Inhibition of human Arno Sec7 domain-mediated nucleotide exchange in delta17 Arf1 (17 to 181) at 1 mM by BODIPY-GTP based time resolved fluorescence assay relative to control
Cytohesin-2 [6] = molecular target: T2, Cytohesin-2 (Homo sapiens, UniProt Q99418); experiment: Inhibition of human Arno Sec7 domain-mediated nucleotide exchange in delta17 Arf1 (17 to 181) by BODIPY-GTP based time resolved fluorescence assay; conditions: read-out: Ki(app)
T2 sequence (Q99418 whole entry): T1 sequence (whole entry)

[7] = molecular target: T1, Cytohesin-2 (Homo sapiens); experiment: Inhibition of human Alexa 488 labeled Arno Sec7 domain-mediated promiscuous aggregator activity in delta17 Arf1 (17 to 181) at >20 uM by fluorescence anisotropy assay
[8] = molecular target: T1, Cytohesin-2 (Homo sapiens); experiment: Inhibition of human Arno Sec7 domain […] delta17 Arf1 (17 to 181) at 1 mM after 15 mins by BODIPY-GTP based time resolved fluorescence assay relative to control
[9] = molecular target: T1, Cytohesin-2 (Homo sapiens); experiment: Inhibition of human Alexa 488 labeled Arno Sec7 domain-mediated promiscuous aggregator activity in delta17 Arf1 (17 to 181) at 100 uM by fluorescence anisotropy assay
Cytohesin-2 [10] = molecular target: T2, Cytohesin-2; experiment: Binding affinity to human Arno Sec7 domain immobilized on CAP sensor chip after 15 mins by […]

SMILES | Activity [2] | inhibition [3] [%] | Activity [4] | inhibition [5] [%] | Ki (Cytohesin-2 [6]) [mM] | also measured
Cc1c(C(N)=O)sc(N)c1C(=O)OC(C)C | Active | 37.9 | inactive | – | – | inhibition [1]: inactive
Cc1cc(O)ccc1NS(=O)(=O)c1cccs1 | Active | 16.4 | Active | – | – | inhibition [1]: inactive
Cc1ccc(S(=O)(=O)Nc2c(C)cc(O)cc2C)cc1 | – | – | – | 32.7 | 1.91 | –
Cc1cc(O)cc(C)c1NC(=O)c1cccc([N+](=O)[O-])c1 | Active | 16 | – | – | – | –
Cc1cc(NS(=O)(=O)c2ccccc2)cc(C)c1O | – | 31.2 | – | – | 5.12 | –
Cc1cc(O)cc(C)c1NS(=O)(=O)c1ccc([N+](=O)[O-])cc1 | Active | – | – | 58.4 | 0.54 | –
O=S(=O)(Nc1ccccc1O)c1ccccc1 | inactive | – | – | 21.6 | – | –
Clc1ccccc1C(c1ccccc1)(c1ccccc1)n1ccnc1 | – | – | – | – | – | inhibition [7]: Active
Cc1ccc(C)c(-c2csc(N)n2)c1 | Active | 22.6 | Active | – | – | inhibition [1]: inactive
Cc1cc(C)c(S(=O)(=O)Nc2ccc(O)cc2C)c(C)c1 | – | – | – | 51.5 | 0.98 | –
COc1ccc(S(=O)(=O)Nc2c(C)cc(O)cc2C)cc1 | – | – | – | 32.1 | 1.61 | inhibition [8]: 35%
Cc1ccc(S(=O)(=O)Nc2cc(C)c(O)cc2C)cc1 | – | – | – | 66.7 | – | –
Cc1c(O)ccc(NS(=O)(=O)c2ccccc2)c1C | – | 24.2 | – | – | – | –
CC(C)(C)c1ccc(C(=O)NCc2ccco2)cc1 | – | – | – | – | – | inhibition [9]: Active
Cc1cc(O)cc(C)c1NS(=O)(=O)c1ccccc1 | Active | 34.6 | Active | – | 3.72 | inhibition [1]: inactive; Kd (Cytohesin-2 [10]): 500 µM; inhibition [8]: 30%
CCN(CC)Cc1cc(NC(C)=O)ccc1O | inactive | – | Active | – | – | –
COc1cc(C(=O)Nc2c(C)cc(O)cc2C)cc(OC)c1OC | Active | 9.9 | – | – | – | –
O=C1CNC(=O)N1C12CC3CC(CC(C3)C1)C2 | inactive | – | Active | – | – | –
